Experimental data taken from patent US5015659A, “Thienylacetic acid derivatives, process for the preparation thereof, the use thereof, and pharmaceuticals containing these and the preparation thereof” (Cassella Aktiengesellschaft, priority 1989, dated 1991).
pKd: −log10 of the molar value. Counter-ions that a name gives are not always drawn.

How the values were obtained:
[1] = tested on: Ischaemia-induced amnesia in the Mongolian gerbil; experiment: Ischaemia-induced amnesia, passive-avoidance learning after brief bilateral cerebral ischaemia; assay type: in vivo; conditions: for Ischaemia-induced learning impairment, % reversal of learning impairment: immediately after the end of ischaemia; for ED50: Meriones unguiculatus, ip, i.p. immediately after the end of ischaemia (3-5 min), read-out: Dose which elicits a half-maximum (about 50%) antagonism of the learning impairment
Experimental: Brief bilateral cerebral ischaemia (3-5 min) in the gerbil leads to a prolonged learning impairment in passive-avoidance learning. The learning impairment can be antagonized if the animals are treated intraperitoneally with the compounds of the general formula I immediately after the end of ischaemia. The table which follows indicates the dosages which elicit a half-maximum (about 50%) antagonism of the learning impairment. The compounds according to the invention show a pronounced superiority to the compounds of the state of the art.

[2] = tested on: Scopolamine-induced amnesia in the mouse; experiment: Scopolamine-induced amnesia, passive-avoidance learning test; assay type: in vivo; conditions: scopolamine 3 mg/kg i.p.; for Scopolamine amnesia, % reversal of amnesia: 30 mg/kg oral pretreatment
Experimental: 1) Scopolamine-induced amnesia in the mouse
Injection of a scopolamine dose of 3 mg/kg i.p. leads to an amnesia in a passive-avoidance learning test.

glycine receptor = experiment: Receptor-binding studies in vitro, rat cortex synaptosomes; conditions: for pKd: read-out: Binding to glycine receptors in the brain, Kd

For `COc1ccc(C(=O)N2CCCC2=O)cc1` [Aniracetam, reference compound], the “Ischaemia-induced learning impairment, % reversal of learning impairment” value ([1]; 30.00 mg/kg ip) was 45% and the ED50 [1] was 30 mg/kg.

With `NC(=O)CNC(C(=O)O)c1cccs1` (stereo not shown) [Example 5, 2-Thienyl-N-aminocarbonylmethylaminoacetic acid] the “Scopolamine amnesia, % reversal of amnesia” value [2] was 56%, the “Ischaemia-induced learning impairment, % reversal of learning impairment” value ([1]; 1.00 mg/kg ip) was 51% and the ED50 [1] was 1 mg/kg.

For `NC(=O)C(NCC(=O)O)c1cccs1` (stereo not shown) [Example 8, 2-Thienyl-N-hydroxycarbonylmethylaminoacetamide hydrochloride], the “Scopolamine amnesia, % reversal of amnesia” value [2] was 71%, the “Ischaemia-induced learning impairment, % reversal of learning impairment” value ([1]; 0.03 mg/kg ip) was 58% and the ED50 [1] was 0.03 mg/kg.

In the case of `Cl.NCC(=O)NC(C(=O)O)c1cccs1` (stereo not shown) [Example 9, 2-Thienyl-N-aminoacetylaminoacetic acid hydrochloride], the “Ischaemia-induced learning impairment, % reversal of learning impairment” value ([1]; 0.10 mg/kg ip) was 54%, the ED50 [1] was 0.1 mg/kg and the pKd (glycine receptor) was 5.74.

`NC(C(=O)NCC(=O)O)c1cccs1` (stereo not shown) [Example 11, N-(2-Thienylaminoacetyl)glycine] was tested, and the “Ischaemia-induced learning impairment, % reversal of learning impairment” value ([1]; 1.00 mg/kg ip) was 54%, the ED50 [1] was 1 mg/kg and the pKd (glycine receptor) was 5.74.

In the case of `NC(=O)CN1CC(O)CC1=O` (stereo not shown) [Oxiracetam, reference compound], the “Ischaemia-induced learning impairment, % reversal of learning impairment” value ([1]; 100.00 mg/kg ip) was 46% and the ED50 [1] was 100 mg/kg.

`NC(=O)CN1CCCC1=O` [Piracetam, reference compound] was tested, and the “Scopolamine amnesia, % reversal of amnesia” value [2] was 18%, the “antagonism of scopolamine-induced amnesia (in words)” value ([2]; oral pretreatment) was “only marginal activity” and the “Binding to glycine receptors in the brain (in words)” value (glycine receptor) was “No specific binding”.
